Test results: patent US8742132B2, “Indolylmaleimide derivatives processes for their production and pharmaceutical compositions” (Novartis AG, priority 2006, dated 2014)

What was measured:
Human recombinant PKCβ1 = target: T1, Human recombinant PKCβ1 (Homo sapiens, UniProt P05771); test: Protein Kinase Cβ1 Assay; type: biochemical; details: single compounds
T1 construct: purchased Oxford Biomedical Research
Method: (§1) The compounds of the invention are tested for their activity on different PKC isoforms according to the following method. Assay is performed in a white with clear bottom 384-well microtiterplate with non-binding surface. The reaction mixture (25 μl) contains 1.5 μM of a tridecapeptide acceptor substrate that mimics the pseudo substrate sequence of PKC a with the Ala→Ser replacement, 10 μM ^33P-ATP, 10 mM Mg(NO3)2, 0.2 mM CaCl2, PKC at a protein concentration varying from 25 to 400 ng/ml (depending on the isotype used), lipid vesicles (containing 30 mol % phosphatidylserine, 5 mol % DAG and 65 mol % phosphatidylcholine) at a final lipid concentration of 0.5 mM, in 20 mM Tris-HCl buffer pH 7.4 +0.1% BSA. Incubation is performed for 60 min at room temperature. Reaction is stopped by adding 50 μl of stop mix (100 mM EDTA, 200 μM ATP, 0.1% Triton X-100, 0.375 mg/well streptavidin-coated SPA beads in phosphate buffered saline w/o Ca, Mg. After 10 min incubation at room temperature, the suspension is spun down for 10 min at 300 g. Incorporated radioactivity is measured in a Trilux counter for 1 min. IC50 measurement is performed on a routine basis by incubating a serial dilution of inhibitor at concentrations ranging between […]. IC50 values are calculated from the graph by curve fitting with XL Fit® software. […]

Human recombinant PKCα = target: T2, Human recombinant PKCα (Homo sapiens, UniProt P17252); test: Protein Kinase Cα Assay; type: biochemical; details: single compounds
T2 construct: purchased Oxford Biomedical Research
Method: as §1

T1 sequence (P05771 whole entry): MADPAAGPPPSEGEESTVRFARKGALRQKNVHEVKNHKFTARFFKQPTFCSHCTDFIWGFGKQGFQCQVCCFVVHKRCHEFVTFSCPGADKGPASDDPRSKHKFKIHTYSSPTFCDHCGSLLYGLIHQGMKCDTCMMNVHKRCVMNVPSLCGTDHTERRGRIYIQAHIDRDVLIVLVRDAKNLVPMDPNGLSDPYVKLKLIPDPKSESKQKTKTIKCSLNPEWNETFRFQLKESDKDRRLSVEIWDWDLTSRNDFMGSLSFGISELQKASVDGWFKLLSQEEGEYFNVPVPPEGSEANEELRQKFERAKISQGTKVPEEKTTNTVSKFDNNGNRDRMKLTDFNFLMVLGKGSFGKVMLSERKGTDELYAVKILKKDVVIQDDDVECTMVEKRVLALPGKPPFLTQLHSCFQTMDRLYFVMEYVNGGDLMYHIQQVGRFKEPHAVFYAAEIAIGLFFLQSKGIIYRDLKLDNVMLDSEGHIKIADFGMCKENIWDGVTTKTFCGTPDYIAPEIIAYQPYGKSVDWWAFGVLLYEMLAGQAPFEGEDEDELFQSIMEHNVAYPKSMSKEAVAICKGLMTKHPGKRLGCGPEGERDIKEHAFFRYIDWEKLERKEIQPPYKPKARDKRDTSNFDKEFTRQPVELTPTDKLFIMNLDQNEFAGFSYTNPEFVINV

| IC50 (Human recombinant PKCβ1) | IC50 (Human recombinant PKCα) | SMILES |
| --- | --- | --- |
| 18.2 nM |  | Cc1cc2ccc(CN(C)C)cn2c1C1=C(c2c[nH]c3ccccc23)C(=O)NC1=O [Example 24, 3-(6-Dimethylaminomethyl-2-methyl-indolizin-3-yl)-4-(1H-indol-3-yl)-pyrrole-2,5-dione] |
| 0.9 nM |  | Cc1ccc2c(C3=C(c4c(C(F)(F)F)[nH]c5ccc(CN(C)C)cc45)C(=O)NC3=O)c[nH]c2c1 [Example 47] |
|  | 0.3 nM | CNCc1ccc2[nH]c(C)c(C3=C(c4cn(C)c5ccccc45)C(=O)NC3=O)c2c1 [Example 51] |
